Measurements: ChEMBL document CHEMBL1255458, “Worldwide experience with the use of doripenem against extended-spectrum-beta-lactamase-producing and ciprofloxacin-resistant Enterobacteriaceae: analysis of six phase 3 clinical studies” (2010)
Converted amounts (≈) assume the structure as drawn.

Tests used:
Klebsiella pneumoniae = assay: Antibacterial activity against […] Klebsiella pneumoniae by broth microdilution method; type: functional
Enterobacteriaceae [1] = assay: Antibacterial activity against extended spectrum beta-lactamase-producing Enterobacteriaceae clinical isolates by broth microdilution method; type: functional
Enterobacteriaceae [2] = assay: Antibacterial activity against ciprofloxacin-resistant Enterobacteriaceae clinical isolates by broth microdilution method; type: functional
Enterobacteriaceae [3] = assay: Antibacterial activity against Enterobacteriaceae clinical isolates isolated from patient with urinary tract infection assessed as cure rate at test-of-cure visit; type: functional, Urine
Enterobacteriaceae [4] = assay: Antibacterial activity against extended spectrum beta-lactamase-producing Enterobacteriaceae clinical isolates isolated from patient with urinary tract infection assessed as cure rate at test-of-cure visit; type: functional, Urine
Enterobacteriaceae [5] = assay: Antibacterial activity against ciprofloxacin-resistant Enterobacteriaceae clinical isolates isolated from patient with urinary tract infection assessed as cure rate at test-of-cure visit; type: functional, Urine
Enterobacteriaceae [6] = assay: Antibacterial activity against Enterobacteriaceae clinical isolates isolated from patient with complicated urinary tract infection assessed as cure rate at test-of-cure visit; type: functional, Urine
Enterobacteriaceae [7] = assay: Antibacterial activity against extended spectrum beta-lactamase-producing Enterobacteriaceae clinical isolates isolated from patient with complicated urinary tract infection assessed as cure rate at test-of-cure visit; type: functional, Urine
Enterobacteriaceae [8] = assay: Antibacterial activity against Enterobacteriaceae clinical isolates isolated from patient with complicated intra-abdominal infection assessed as cure rate at test-of-cure visit; type: functional
Enterobacteriaceae [9] = assay: Antibacterial activity against extended spectrum beta-lactamase-producing Enterobacteriaceae clinical isolates isolated from patient with complicated intra-abdominal infection assessed as cure rate at test-of-cure visit; type: functional
Enterobacteriaceae [10] = assay: Antibacterial activity against ciprofloxacin-resistant Enterobacteriaceae clinical isolates isolated from patient with complicated intra-abdominal infection assessed as cure rate at test-of-cure visit; type: functional
Enterobacteriaceae [11] = assay: Antibacterial activity against Enterobacteriaceae clinical isolates isolated from patient with nosocomial pneumonia assessed as cure rate at test-of-cure visit; type: functional
Enterobacteriaceae [12] = assay: Antibacterial activity against extended spectrum beta-lactamase-producing Enterobacteriaceae clinical isolates isolated from patient with nosocomial pneumonia assessed as cure rate at test-of-cure visit; type: functional
Enterobacteriaceae [13] = assay: Antibacterial activity against ciprofloxacin-resistant Enterobacteriaceae clinical isolates isolated from patient with nosocomial pneumonia assessed as cure rate at test-of-cure visit; type: functional
Enterobacteriaceae [14] = assay: Antibacterial activity against Enterobacteriaceae clinical isolates isolated from patient with urinary tract infection assessed as cure rate at test-of-cure visit by mMITT analysis; type: functional, Urine
Enterobacteriaceae [15] = assay: Antibacterial activity against extended spectrum beta-lactamase-producing Enterobacteriaceae clinical isolates isolated from patient with urinary tract infection assessed as cure rate at test-of-cure visit by mMITT analysis; type: functional, Urine
Enterobacteriaceae [16] = assay: Antibacterial activity against ciprofloxacin-resistant Enterobacteriaceae clinical isolates isolated from patient with urinary tract infection assessed as cure rate at test-of-cure visit by mMITT analysis; type: functional, Urine
Enterobacteriaceae [17] = assay: Antibacterial activity against Enterobacteriaceae clinical isolates isolated from patient with complicated urinary tract infection assessed as cure rate at test-of-cure visit by mMITT analysis; type: functional, Urine
Enterobacteriaceae [18] = assay: Antibacterial activity against extended spectrum beta-lactamase-producing Enterobacteriaceae clinical isolates isolated from patient with complicated urinary tract infection assessed as cure rate at test-of-cure visit by mMITT analysis; type: functional, Urine
Enterobacteriaceae [19] = assay: Antibacterial activity against ciprofloxacin-resistant Enterobacteriaceae clinical isolates isolated from patient with complicated urinary tract infection assessed as cure rate at test-of-cure visit by mMITT analysis; type: functional, Urine
Enterobacteriaceae [20] = assay: Antibacterial activity against Enterobacteriaceae clinical isolates isolated from patient with complicated intra-abdominal infection assessed as cure rate at test-of-cure visit by mMITT analysis; type: functional
Enterobacteriaceae [21] = assay: Antibacterial activity against extended spectrum beta-lactamase-producing Enterobacteriaceae clinical isolates isolated from patient with complicated intra-abdominal infection assessed as cure rate at test-of-cure visit by mMITT analysis; type: functional
Enterobacteriaceae [22] = assay: Antibacterial activity against ciprofloxacin-resistant Enterobacteriaceae clinical isolates isolated from patient with complicated intra-abdominal infection assessed as cure rate at test-of-cure visit by mMITT analysis; type: functional
Enterobacteriaceae [23] = assay: Antibacterial activity against Enterobacteriaceae clinical isolates isolated from patient with nosocomial pneumonia assessed as cure rate at test-of-cure visit by mMITT analysis; type: functional
Enterobacteriaceae [24] = assay: Antibacterial activity against extended spectrum beta-lactamase-producing Enterobacteriaceae clinical isolates isolated from patient with nosocomial pneumonia assessed as cure rate at test-of-cure visit by mMITT analysis; type: functional
Enterobacteriaceae [25] = assay: Antibacterial activity against Enterobacteriaceae by broth microdilution method; type: functional
Enterobacteriaceae [26] = assay: Antibacterial activity against ciprofloxacin-resistant Enterobacteriaceae clinical isolates isolated from patient with complicated urinary tract infection assessed as cure rate at test-of-cure visit; type: functional, Urine
Enterobacteriaceae [27] = assay: Antibacterial activity against ciprofloxacin-resistant Enterobacteriaceae clinical isolates isolated from patient with nosocomial pneumonia assessed as cure rate at test-of-cure visit by mMITT analysis; type: functional

For `C[C@@H](O)[C@H]1C(=O)N2C(C(=O)O)=C(S[C@@H]3CN[C@H](CNS(N)(=O)=O)C3)[C@H](C)[C@H]12` [DORIPENEM], the MIC50 (Klebsiella pneumoniae) was ≤ 0.03 µg/mL, the MIC90 (Klebsiella pneumoniae) was 0.12 µg/mL (≈ 0.285 µM) and the MIC50 (Enterobacteriaceae [1]) was 0.06 µg/mL (≈ 0.143 µM). For the same compound, the MIC90 (Enterobacteriaceae [1]) was 0.25 µg/mL (≈ 0.595 µM), the MIC50 (Enterobacteriaceae [2]) was 0.03 µg/mL (≈ 0.0713 µM) and the MIC90 (Enterobacteriaceae [2]) was 0.5 µg/mL (≈ 1.19 µM). For the same compound, the Activity (Enterobacteriaceae [3]) was 82.3%, the Activity (Enterobacteriaceae [4]) was 72.7% and the Activity (Enterobacteriaceae [5]) was 68.1%. It also gave an Activity (Enterobacteriaceae [6]) of 83.5%, an Activity (Enterobacteriaceae [7]) of 60% and an Activity (Enterobacteriaceae [8]) of 84.4%. The Activity (Enterobacteriaceae [9]) was 71.4%, the Activity (Enterobacteriaceae [10]) was 82.4% and the Activity (Enterobacteriaceae [11]) was 69.1%. The Activity (Enterobacteriaceae [12]) was 75%, the Activity (Enterobacteriaceae [13]) was 70% and the Activity (Enterobacteriaceae [14]) was 73.6%. For the same compound, the Activity (Enterobacteriaceae [15]) was 66.7%, the Activity (Enterobacteriaceae [16]) was 61.9% and the Activity (Enterobacteriaceae [17]) was 74.3%. The Activity (Enterobacteriaceae [18]) was 50%, the Activity (Enterobacteriaceae [19]) was 53.3% and the Activity (Enterobacteriaceae [20]) was 77.3%. The Activity (Enterobacteriaceae [21]) was 75%, the Activity (Enterobacteriaceae [22]) was 83.3% and the Activity (Enterobacteriaceae [23]) was 59.6%. For the same compound, the Activity (Enterobacteriaceae [24]) was 64.3%.

For `C[C@@H](O)[C@H]1C(=O)N2C(C(=O)O)=C(S[C@@H]3CN[C@H](C(=O)Nc4cccc(C(=O)O)c4)C3)[C@H](C)[C@H]12` [ERTAPENEM], the MIC50 (Klebsiella pneumoniae) was ≤ 0.03 µg/mL, the MIC90 (Klebsiella pneumoniae) was ≤ 0.03 µg/mL and the MIC50 (Enterobacteriaceae [1]) was 0.12 µg/mL (≈ 0.252 µM). For the same compound, the MIC90 (Enterobacteriaceae [1]) was 1 µg/mL (≈ 2.1 µM), the MIC50 (Enterobacteriaceae [2]) was ≤ 0.03 µg/mL and the MIC90 (Enterobacteriaceae [2]) was 4 µg/mL (≈ 8.41 µM).

`C[C@@H](O)[C@H]1C(=O)N2C(C(=O)O)=C(S[C@@H]3CN[C@H](C(=O)N(C)C)C3)[C@H](C)[C@H]12` [MEROPENEM] was tested, and the MIC50 (Klebsiella pneumoniae) was ≤ 0.03 µg/mL, the MIC90 (Klebsiella pneumoniae) was 0.06 µg/mL (≈ 0.156 µM) and the MIC50 (Enterobacteriaceae [1]) was ≤ 0.03 µg/mL. For the same compound, the MIC90 (Enterobacteriaceae [1]) was 0.12 µg/mL (≈ 0.313 µM), the MIC50 (Enterobacteriaceae [2]) was 0.03 µg/mL (≈ 0.0782 µM) and the MIC90 (Enterobacteriaceae [2]) was 0.25 µg/mL (≈ 0.652 µM). It also gave an Activity (Enterobacteriaceae [8]) of 85%, an Activity (Enterobacteriaceae [9]) of 100% and an Activity (Enterobacteriaceae [10]) of 91.7%. For the same compound, the Activity (Enterobacteriaceae [20]) was 77.9%, the Activity (Enterobacteriaceae [21]) was 62.5% and the Activity (Enterobacteriaceae [22]) was 81.3%.

Work on `CC(C)(O/N=C(\C(=O)N[C@@H]1C(=O)N2C(C(=O)[O-])=C(C[n+]3ccccc3)CS[C@H]12)c1csc(N)n1)C(=O)O` [CEFTAZIDIME] yielded an MIC50 (Enterobacteriaceae [25]) of 0.12 µg/mL (≈ 0.22 µM), an MIC90 (Enterobacteriaceae [25]) of 0.5 µg/mL (≈ 0.915 µM) and an MIC50 (Enterobacteriaceae [1]) of 32 µg/mL (≈ 58.5 µM). For the same compound, the MIC90 (Enterobacteriaceae [1]) was > 32 µg/mL, the MIC50 (Enterobacteriaceae [2]) was 1 µg/mL (≈ 1.83 µM) and the MIC90 (Enterobacteriaceae [2]) was > 32 µg/mL.

In the case of `C[C@H]1COc2c(N3CCN(C)CC3)c(F)cc3c(=O)c(C(=O)O)cn1c23.C[C@H]1COc2c(N3CCN(C)CC3)c(F)cc3c(=O)c(C(=O)O)cn1c23.O` [LEVOFLOXACIN], the MIC50 (Enterobacteriaceae [25]) is reported as ≤ 0.03 µg/mL, the MIC90 (Enterobacteriaceae [25]) is reported as 8 µg/mL and the MIC50 (Enterobacteriaceae [1]) is reported as 8 µg/mL. It also gave an MIC90 (Enterobacteriaceae [1]) of 32 µg/mL, an MIC50 (Enterobacteriaceae [2]) of 16 µg/mL and an MIC90 (Enterobacteriaceae [2]) of 64 µg/mL. For the same compound, the Activity (Enterobacteriaceae [6]) was 85.4%, the Activity (Enterobacteriaceae [7]) was 20% and the Activity (Enterobacteriaceae [26]) was 21.9%. For the same compound, the Activity (Enterobacteriaceae [17]) was 75.2%, the Activity (Enterobacteriaceae [18]) was 14.3% and the Activity (Enterobacteriaceae [19]) was 23.8%.

In the case of `C[C@@H](O)[C@H]1C(=O)N2C(C(=O)O)=C(SCCNC=N)C[C@H]12` [IMIPENEM ANHYDROUS], the MIC50 (Klebsiella pneumoniae) is reported as 0.12 µg/mL (≈ 0.401 µM), the MIC90 (Klebsiella pneumoniae) is reported as 1 µg/mL (≈ 3.34 µM) and the MIC50 (Enterobacteriaceae [1]) is reported as 0.12 µg/mL (≈ 0.401 µM). It also gave an MIC90 (Enterobacteriaceae [1]) of 0.5 µg/mL (≈ 1.67 µM), an MIC50 (Enterobacteriaceae [2]) of 0.12 µg/mL (≈ 0.401 µM) and an MIC90 (Enterobacteriaceae [2]) of 1 µg/mL (≈ 3.34 µM). The Activity (Enterobacteriaceae [11]) was 64.4%, the Activity (Enterobacteriaceae [12]) was 100% and the Activity (Enterobacteriaceae [23]) was 61.4%. For the same compound, the Activity (Enterobacteriaceae [24]) was 100% and the Activity (Enterobacteriaceae [27]) was 83.3%.

For `NCC[C@H](O)C(=O)N[C@@H]1C[C@H](N)[C@@H](O[C@H]2O[C@H](CN)[C@@H](O)[C@H](O)[C@H]2O)[C@H](O)[C@H]1O[C@H]1O[C@H](CO)[C@@H](O)[C@H](N)[C@H]1O` [AMIKACIN], the MIC50 (Enterobacteriaceae [25]) was 2 µg/mL (≈ 3.42 µM), the MIC90 (Enterobacteriaceae [25]) was 8 µg/mL (≈ 13.7 µM) and the MIC50 (Enterobacteriaceae [1]) was 8 µg/mL (≈ 13.7 µM). The MIC90 (Enterobacteriaceae [1]) was > 64 µg/mL and the MIC50 (Enterobacteriaceae [2]) was 4 µg/mL (≈ 6.83 µM).
